The text below walks through data of ChEMBL document CHEMBL3244272, “Folate antagonists. 15. 2,3-Diamino-6-(2-naphthylsulfonyl)quinazoline and related 2,4-diamino-6-[(phenyl and naphthyl)sulfinyl and sulfonyl]quinazolines, a potent new class of antimetabolites with phenomenal antimalarial activity” (J Med Chem, 1979).

Converted amounts (≈) assume the structure as drawn. Some results are limits rather than exact numbers.

Common to all, as to type: functional
The test system of one assay is Enterococcus faecalis. As to the kind of experiment: Antibacterial activity against Streptococcus faecalis MGH-2 assessed as growth inhibition.
The test system of another assay is Pseudomonas aeruginosa. As to the kind of experiment: Antibacterial activity against Pseudomonas aeruginosa 28 assessed as growth inhibition.
A further assay deals with Shigella sonnei. As to the kind of experiment: Antibacterial activity against Shigella sonnei C-10 assessed as growth inhibition.
The subject of assay [1] is Staphylococcus aureus. The experiment in a line: Antibacterial activity against Staphylococcus aureus UC-76 assessed as growth inhibition.
For assay [2], the system named is Mycobacterium tuberculosis. As to the kind of experiment: Antibacterial activity against Mycobacterium tuberculosis H37Rv assessed as growth inhibition.
Assay [3] relates to Plasmodium berghei. The experiment in a line: Antimalarial activity against trophozoite-induced Plasmodium berghei infected in mouse assessed as change in mean survival time at 2.5 mg/kg, sc single dose after 72 hrs of infection. The note with it: route subcutaneous.
In assay [4] the test system is Plasmodium berghei. The experiment in a line: Antimalarial activity against trophozoite-induced Plasmodium berghei infected in mouse assessed as change in mean survival time at 5 mg/kg, sc single dose after 72 hrs of infection. The following applies: route subcutaneous.
Another assay relates to Escherichia coli. As to the kind of experiment: Antibacterial activity against Escherichia coli Vogel assessed as growth inhibition.
The test system of assay [5] is Plasmodium berghei. The experiment in a line: Antimalarial activity against trophozoite-induced Plasmodium berghei infected in mouse assessed as change in mean survival time at 10 mg/kg, sc single dose after 72 hrs of infection. The note with it: route subcutaneous.
For assay [6], the system named is Plasmodium gallinaceum. The experiment in a line: Antimalarial activity against sporozoite-induced Plasmodium gallinaceum infected in chick assessed as change in cured at 120 mg/kg, sc single dose. The note with it: route subcutaneous.
Assay [7] concerns Staphylococcus aureus. As to the kind of experiment: Antibacterial activity against Staphylococcus aureus S18713 assessed as growth inhibition.
Assay [8] deals with Plasmodium berghei. The experiment in a line: Antimalarial activity against trophozoite-induced Plasmodium berghei infected in mouse assessed as change in mean survival time at 1.25 mg/kg, sc single dose after 72 hrs of infection. The following applies: route subcutaneous.
Assay [9] deals with Plasmodium berghei. The experiment in a line: Antimalarial activity against trophozoite-induced Plasmodium berghei infected in sc dosed mouse assessed as minimum curative dose.
For assay [10], the system named is Plasmodium berghei. The experiment in a line: Antimalarial activity against trophozoite-induced Plasmodium berghei infected in mouse assessed as change in mean survival time at 20 mg/kg, sc single dose after 72 hrs of infection. The note with it: route subcutaneous.
The test system of assay [11] is Plasmodium berghei. As to the kind of experiment: Antimalarial activity against trophozoite-induced Plasmodium berghei infected in mouse assessed as change in mean survival time at 80 mg/kg, sc single dose after 72 hrs of infection. The note with it: route subcutaneous.
Assay [12] has as its system Plasmodium gallinaceum. As to the kind of experiment: Antimalarial activity against sporozoite-induced Plasmodium gallinaceum infected in chick assessed as change in cured at 30 mg/kg, sc single dose. The following applies: route subcutaneous.
Assay [13] deals with Plasmodium berghei. As to the kind of experiment: Antimalarial activity against trophozoite-induced Plasmodium berghei infected in mouse assessed as change in mean survival time at 160 mg/kg, sc single dose after 72 hrs of infection. The note with it: route subcutaneous.
The subject of assay [14] is Plasmodium berghei. The experiment in a line: Antimalarial activity against trophozoite-induced Plasmodium berghei infected in mouse assessed as change in mean survival time at 640 mg/kg, sc single dose after 72 hrs of infection. The note with it: route subcutaneous.
For assay [15], the system named is Plasmodium gallinaceum. The experiment in a line: Antimalarial activity against sporozoite-induced Plasmodium gallinaceum infected in chick assessed as change in cured at 15 mg/kg, sc single dose. The following applies: route subcutaneous.
The subject of assay [16] is Plasmodium berghei. As to the kind of experiment: Antimalarial activity against trophozoite-induced Plasmodium berghei infected in mouse assessed as change in mean survival time at 40 mg/kg, sc single dose after 72 hrs of infection. The note with it: route subcutaneous.
In assay [17] the test system is Plasmodium gallinaceum. The experiment in a line: Antimalarial activity against sporozoite-induced Plasmodium gallinaceum infected in chick assessed as change in cured at 60 mg/kg, sc single dose. The following applies: route subcutaneous.
Assay [18] has as its system Plasmodium berghei. The experiment in a line: Antimalarial activity against trophozoite-induced Plasmodium berghei infected in mouse assessed as change in mean survival time at 320 mg/kg, sc single dose after 72 hrs of infection. The note with it: route subcutaneous.
In assay [19] the test system is Plasmodium vivax. The experiment in a line: Antimalarial activity against Plasmodium vivax New Guinea Chesson in po once daily dosed Owl monkey assessed as curative dose compound treated for 7 days.
The subject of assay [20] is Plasmodium vivax. The experiment in a line: Antimalarial activity against Plasmodium vivax VietnamPalo Alto in po once daily dosed Owl monkey assessed as curative dose compound treated for 7 days.
For assay [21], the system named is Plasmodium falciparum. As to the kind of experiment: Antimalarial activity against Plasmodium falciparum Vietnam Oak Knoll in po once daily dosed Owl monkey assessed as curative dose compound treated for 7 days.
For assay [22], the system named is Plasmodium falciparum. As to the kind of experiment: Antimalarial activity against Plasmodium falciparum Vietnam Smith in po once daily dosed Owl monkey assessed as curative dose compound treated for 7 days.
Assay [23] deals with Plasmodium falciparum. As to the kind of experiment: Antimalarial activity against chloroquine-resistant, pyrimethamine-sensitive Plasmodium falciparum Vietnam Oak Knoll in Aotus monkey assessed as dose required to >50% cures compound treated for 7 days.
For assay [24], the system named is Plasmodium falciparum. As to the kind of experiment: Antimalarial activity against Plasmodium falciparum Malayan Camp CH/Q infected in po once daily dosed Owl monkey assessed as curative dose compound treated for 7 days.
In assay [25] the test system is Plasmodium falciparum. As to the kind of experiment: Antimalarial activity against chloroquine-sensitive, pyrimethamine-resistant Plasmodium falciparum Malayan Camp CH/Q infected in Aotus monkey assessed as dose required to >50% cures compound treated for 7 days.

Consider `Nc1nc(N)c2cc(S(=O)(=O)c3ccc(Cl)c(Cl)c3)ccc2n1`, for which the minimum inhibitory concentration (MIC) (commonly the lowest concentration found to suppress growth) was under 0.25 µg/mL in the assay on Enterococcus faecalis; over 25 µg/mL in the assay with Pseudomonas aeruginosa; 20 µg/mL (≈ 54.2 µM) with Shigella sonnei; 0.5 µg/mL (≈ 1.35 µM) in the assay with Staphylococcus aureus [1]; 20 µg/mL (≈ 54.2 µM) in assay [2]; 2.5 µg/mL (≈ 6.77 µM) with Escherichia coli. Further, the minimum inhibitory concentration (MIC) in the assay with Staphylococcus aureus [7] turned out to be 1 µg/mL (≈ 2.71 µM). Further, the MST with Plasmodium berghei [3] was 3.5 days; with Plasmodium berghei [4] it was 5.9 days; in the assay on Plasmodium berghei [5], 10.3 days; in the assay with Plasmodium gallinaceum [6] it was 0 days; in the assay with Plasmodium berghei [8], 1.1 days; in the assay on Plasmodium berghei [10], 11.2 days. Besides, the MCD in the assay on Plasmodium berghei [9] stood at 10 mg/kg.

Regarding `Nc1nc(N)c2cc([S+]([O-])c3ccccc3-c3ccccc3)ccc2n1` (configuration not stated), the MST in the assay on Plasmodium berghei [11] worked out at 0.5 days; with Plasmodium gallinaceum [12], 0 days; in the assay on Plasmodium berghei [13] it was 3.3 days; in the assay with Plasmodium berghei [14], 12.7 days; in the assay with Plasmodium gallinaceum [15], 0 days; in the assay on Plasmodium berghei [5] it was 0.3 days. Also, the MST in the assay with Plasmodium berghei [16] was found to be 0.3 days; with Plasmodium berghei [10], 0.3 days; in the assay with Plasmodium gallinaceum [17], 3.7 days; in the assay with Plasmodium berghei [18] it was 5.7 days. The minimum inhibitory concentration (MIC) with Enterococcus faecalis was under 0.25 µg/mL; with Pseudomonas aeruginosa, over 25 µg/mL; in the assay with Shigella sonnei it was over 25 µg/mL; with Staphylococcus aureus [1], 2.5 µg/mL (≈ 6.94 µM); in assay [2] it was 25 µg/mL (≈ 69.4 µM); with Escherichia coli, over 25 µg/mL. Further, in the assay with Staphylococcus aureus [7], the minimal inhibitory concentration (MIC) turned out to be 5 µg/mL (≈ 13.9 µM). Also, in the assay on Plasmodium berghei [9], the MCD was 640 mg/kg.

For `Nc1nc(N)c2cc(S(=O)(=O)c3ccccc3-c3ccccc3)ccc2n1`, the MST in the assay with Plasmodium berghei [11] came to 0.5 days; in the assay with Plasmodium berghei [13], 0.7 days; with Plasmodium berghei [14], 1.1 days; in the assay with Plasmodium berghei [16] it was 0.3 days; in the assay on Plasmodium berghei [10], 0.3 days; with Plasmodium berghei [18], 0.7 days. Besides, the MIC was 0.25 µg/mL (≈ 0.664 µM) in the assay with Enterococcus faecalis; over 25 µg/mL in the assay with Pseudomonas aeruginosa; over 25 µg/mL in the assay on Shigella sonnei; over 25 µg/mL in the assay with Staphylococcus aureus [1]; over 25 µg/mL with Escherichia coli; over 25 µg/mL with Staphylococcus aureus [7]. Further, the MCD in the assay with Plasmodium berghei [9] stood at 640 mg/kg.

`CCN(CC)CCCC(C)Nc1ccnc2cc(Cl)ccc12` (configuration not stated) [CHLOROQUINE]: the CD90 in the assay on Plasmodium vivax [19] is 2.5 mg/kg; in the assay on Plasmodium vivax [20], 2.5 mg/kg; in the assay on Plasmodium falciparum [21] it was 2 mg/kg; in the assay on Plasmodium falciparum [22], over 20 mg/kg; with Plasmodium falciparum [24], 5 mg/kg. In addition, the Activity in the assay with Plasmodium falciparum [23] is over 20 mg/kg; in the assay with Plasmodium falciparum [25] it was 5 mg/kg.
